Molecules are shown by their SMILES.

In this assay the target is purified human MMP-12 enzyme (Homo sapiens, UniProt P39900). Description: MMP-12 FRET assay. It counts as biochemical. The note with it: substrate 20 μM, room temperature. How it is done: Compounds according to the present teachings were tested in an MMP-12 FRET assay as follows. To each well of black polystyrene 96-well plate was added assay buffer (50 mM HEPES (pH 7.4), 100 mM NaCl, 5 mM CaCl2 and 0.005% Brij-35 (Polyoxyethyleneglycol dodecyl ether, Pierce cat#20150), purified human MMP-12 enzyme, and varied concentrations of test compounds (prepared by serial dilution of a stock solution in 100% DMSO). The plates were incubated at room temperature for 30 minutes. The enzymatic reactions were initiated by addition of a substrate, MCA-Pro-Leu-Gly-Leu-Dpa(DNP)-Ala-Arg, containing a fluorescent group (7-methoxycoumarin, MCA) and a 2,4-dinitrophenyl group (DNP), to a final concentration of 20 μM. The final DMSO concentration in the assay was 10%. The reaction was monitored for 30 minutes at room temperature and the initial rate of the cleavage reaction was determined using a fluorescence plate reader (λex: 325 nm, λem: 395 nm). Plots of the inhibitor concentration vs. the initial cleavage rate were fit to the following equation: y=Vmax*(1−(x^n/(K^n+x^n))), whereby x=inhibitor concentration, y=initial rate, Vmax=initial rate in the absence of inhibitor, n=slope factor, and K=IC50 for the inhibition curve.
purified human MMP-12 enzyme, sequence (P39900 106-470): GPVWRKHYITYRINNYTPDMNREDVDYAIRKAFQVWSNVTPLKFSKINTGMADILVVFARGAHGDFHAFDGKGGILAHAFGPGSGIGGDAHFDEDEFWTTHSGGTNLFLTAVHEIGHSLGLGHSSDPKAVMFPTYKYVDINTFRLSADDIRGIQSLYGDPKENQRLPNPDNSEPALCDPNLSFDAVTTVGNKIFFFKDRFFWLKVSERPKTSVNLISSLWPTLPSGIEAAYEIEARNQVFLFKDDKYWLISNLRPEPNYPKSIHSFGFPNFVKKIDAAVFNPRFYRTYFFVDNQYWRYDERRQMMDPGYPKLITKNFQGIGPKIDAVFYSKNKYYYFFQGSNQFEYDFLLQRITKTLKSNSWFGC
Turning to `CC(C)[C@H](NS(=O)(=O)c1ccc2c(c1)oc1ccc(-c3csc(Cl)n3)cc12)C(=O)O` [Compound 180, (S)-2-(8-(2-chlorothiazol-4-yl)dibenzo[b,d]furan-3-sulfonamido)-3-methylbutanoic acid], the IC50 was less than 1.5 nM. For `CC(C)[C@H](NS(=O)(=O)c1ccc2c(c1)oc1ccc(-c3ccc4c(c3)OCO4)cc12)C(=O)O` [Compound 308, (S)-2-(8-(benzo[d][1,3]dioxol-5-yl)dibenzo[b,d]furan-3-sulfonamido)-3-methylbutanoic acid], the 50% inhibitory concentration (IC50) is less than 1.5 nM.

The compound `CC(C)[C@H](NS(=O)(=O)c1ccc2c(c1)oc1ccc(-c3ccc(C(=O)O)s3)cc12)C(=O)O` [Compound 112, (S)-5-(7-(N-(1-carboxy-2-methylpropyl)sulfamoyl)dibenzo[b,d]furan-2-yl)thiophene-2-carboxylic acid] came in with an IC50 of 52 nM. The figure for `CC(C)[C@@H](NS(=O)(=O)c1ccc2oc3cc(-c4noc(C(F)(F)F)n4)ccc3c2c1)C(=O)O` [Compound 141, (R)-3-methyl-2-(7-(5-(trifluoromethyl)-1,2,4-oxadiazol-3-yl)dibenzo[b,d]furan-2-sulfonamido)butanoic acid] is 14 nM; for `CC(C)[C@H](NS(=O)(=O)c1ccc2c(c1)oc1ccc(-c3c(C(F)(F)F)n[nH]c3-c3ccccc3)cc12)C(=O)O` [Compound 206, (S)-3-methyl-2-(8-(5-phenyl-3-(trifluoromethyl)-1H-pyrazol-4-yl)dibenzo[b,d]furan-3-sulfonamido)butanoic acid] it is 110 nM; for `CC(C)[C@H](NS(=O)(=O)c1ccc2c(c1)sc1ccc(-c3cn[nH]c3)cc12)C(=O)O` [Compound 45, (S)-2-(8-(1H-pyrazol-4-yl)dibenzo[b,d]thiophene-3-sulfonamido)-3-methylbutanoic acid] it is 5.5 nM. For `CC(C)[C@H](NS(=O)(=O)c1ccc2oc3cc(-c4ccc(C(C)(C)C)o4)ccc3c2c1)C(=O)O` [Compound 241, (S)-2-(7-(5-tert-butylfuran-2-yl)dibenzo[b,d]furan-2-sulfonamido)-3-methylbutanoic acid], the IC50 was determined as 170 nM. The same measure for `CC(C)[C@H](NS(=O)(=O)c1ccc2c(c1)sc1ccc(-c3ccc[nH]3)cc12)C(=O)O` [Compound 57, (S)-2-(8-(1H-pyrrol-2-yl)dibenzo[b,d]thiophene-3-sulfonamido)-3-methylbutanoic acid]: 21 nM; for `CC(C)[C@H](NS(=O)(=O)c1ccc2c(c1)oc1ccc(C3CCCC3)cc12)C(=O)O` [Compound 71, (S)-2-(8-cyclopentyldibenzo[b,d]furan-3-sulfonamido)-3-methylbutanoic acid]: less than 1.5 nM. `CCCn1cc(-c2ccc3c(c2)oc2ccc(S(=O)(=O)N[C@@H](C(=O)O)C(C)C)cc23)cn1` [Compound 171, (R)-3-methyl-2-(7-(1-propyl-1H-pyrazol-4-yl)dibenzo[b,d]furan-2-sulfonamido)butanoic acid] had an IC50 of 3.9 nM.

In turn, `CC(C)[C@H](NS(=O)(=O)c1ccc2c(c1)oc1ccc(-c3ncc(CO)s3)cc12)C(=O)O` [Compound 215, (S)-2-(8-(5-(hydroxymethyl)thiazol-2-yl)dibenzo[b,d]furan-3-sulfonamido)-3-methylbutanoic acid] had a concentration for half-maximal inhibition (IC50) of 2.4 nM. The compound `Cc1ccc2nc(-c3ccc4c(c3)oc3ccc(S(=O)(=O)N[C@@H](C(=O)O)C(C)C)cc34)sc2c1` [Compound 298, (R)-3-methyl-2-(7-(6-methylbenzo[d]thiazol-2-yl)dibenzo[b,d]furan-2-sulfonamido)butanoic acid] returned an IC50 of 7.4 nM. The same measure for `CC(C)[C@H](NS(=O)(=O)c1ccc2c(c1)oc1ccc(-c3occc3CN(C)C)cc12)C(=O)O` [Compound 48, (S)-2-(8-(3-((dimethylamino)methyl)furan-2-yl)dibenzo[b,d]furan-3-sulfonamido)-3-methylbutanoic acid]: 118 nM; for `CC(C)[C@H](NS(=O)(=O)c1ccc2c(c1)oc1ccc(-c3sc(Cl)cc3Cl)cc12)C(=O)O` [Compound 75, (S)-2-(8-(3,5-dichlorothiophen-2-yl)dibenzo[b,d]furan-3-sulfonamido)-3-methylbutanoic acid]: less than 1.5 nM. The figure for `Cc1nc(C)c(-c2ccc3c(c2)oc2cc(S(=O)(=O)N[C@H](C(=O)O)C(C)C)ccc23)s1` [Compound 230, (S)-2-(7-(2,4-dimethylthiazol-5-yl)dibenzo[b,d]furan-3-sulfonamido)-3-methylbutanoic acid] is less than 1.5 nM; for `CC(C)[C@H](NS(=O)(=O)c1ccc2c(c1)oc1ccc(-c3ncc(Cn4cccn4)s3)cc12)C(=O)O` [Compound 214, (S)-2-(8-(5-((1H-pyrazol-1-yl)methyl)thiazol-2-yl)dibenzo[b,d]furan-3-sulfonamido)-3-methylbutanoic acid] it is 3.7 nM.

Regarding `CCN=C(NCC)c1ccc2oc3cc(S(=O)(=O)N[C@H](C(=O)O)C(C)C)ccc3c2c1` [Compound 109, (S)-2-(8-(N,N′-diethylcarbamimidoyl)dibenzo[b,d]furan-3-sulfonamido)-3-methylbutanoic acid], the IC50 was determined as 640 nM. The figure for `CC(C)[C@H](NS(=O)(=O)c1ccc2c(c1)oc1ccc(-c3nc(-c4ccc(C(F)(F)F)cc4)cs3)cc12)C(=O)O` [Compound 283, (S)-3-methyl-2-(8-(4-(4-(trifluoromethyl)phenyl)thiazol-2-yl)dibenzo[b,d]furan-3-sulfonamido)butanoic acid] is less than 1.5 nM; for `CC(C)[C@H](NS(=O)(=O)c1ccc2c(c1)sc1cc(-c3ccc(Cl)s3)ccc12)C(=O)O` [Compound 304, (S)-2-(7-(5-chlorothiophen-2-yl)dibenzo[b,d]thiophene-3-sulfonamido)-3-methylbutanoic acid] it is 1.5 nM. In the case of `CC(C)[C@H](NS(=O)(=O)c1ccc2c(c1)oc1ccc(-c3cc(Cl)oc3Cl)cc12)C(=O)O` [Compound 95, (S)-2-(8-(2,5-dichlorofuran-3-yl)dibenzo[b,d]furan-3-sulfonamido)-3-methylbutanoic acid], the IC50 is less than 1.5 nM. The figure for `CC(C)[C@H](NS(=O)(=O)c1ccc2c(c1)oc1cc(-c3ccc(C(C)(C)C)o3)ccc12)C(=O)O` [Compound 231, (S)-2-(7-(5-tert-butylfuran-2-yl)dibenzo[b,d]furan-3-sulfonamido)-3-methylbutanoic acid] is 3.4 nM; for `CCN(CC)C(=N)c1ccc2oc3cc(S(=O)(=O)N[C@H](C(=O)O)C(C)C)ccc3c2c1` [Compound 106, (S)-2-(8-(N,N-diethylcarbamimidoyl)dibenzo[b,d]furan-3-sulfonamido)-3-methylbutanoic acid] it is 400 nM.

The compound `CONC(=N)c1ccc2oc3cc(S(=O)(=O)N[C@H](C(=O)O)C(C)C)ccc3c2c1` [Compound 108, (S)-2-(8-(N-methoxycarbamimidoyl)dibenzo[b,d]furan-3-sulfonamido)-3-methylbutanoic acid] had an IC50 of 2 nM.

As for `Cc1ccc(-c2ccc3c(c2)oc2cc(S(=O)(=O)N[C@H](C(=O)O)C(C)C)ccc23)s1` [Compound 142, (S)-3-methyl-2-(7-(5-methylthiophen-2-yl)dibenzo[b,d]furan-3-sulfonamido)butanoic acid], the midpoint of inhibition, the IC50, lay at 2.5 nM. The figure for `CC(C)[C@H](NS(=O)(=O)c1ccc2c(c1)sc1c(-c3ccsc3Cl)cccc12)C(=O)O` [Compound 51, (S)-2-(6-(2-chlorothiophen-3-yl)dibenzo[b,d]thiophene-3-sulfonamido)-3-methylbutanoic acid] is more than 1000 nM; for `Cc1noc(C)c1-c1ccc2sc3cc(S(=O)(=O)N[C@H](C(=O)O)C(C)C)ccc3c2c1` [Compound 27, (S)-2-(8-(3,5-dimethylisoxazol-4-yl)dibenzo[b,d]thiophene-3-sulfonamido)-3-methylbutanoic acid] it is 700 nM. The figure for `CC(C)[C@H](NS(=O)(=O)c1ccc2c(c1)oc1ccc(-c3ccsc3)cc12)C(=O)O` [Compound 28, (S)-3-methyl-2-(8-(thiophen-3-yl)dibenzo[b,d]furan-3-sulfonamido)butanoic acid] is less than 1.5 nM; for `Cc1nn(C)c(C)c1-c1ccc2oc3cc(S(=O)(=O)N[C@H](C(=O)O)C(C)C)ccc3c2c1` [Compound 160, (S)-3-methyl-2-(8-(1,3,5-trimethyl-1H-pyrazol-4-yl)dibenzo[b,d]furan-3-sulfonamido)butanoic acid] it is 22 nM.

Turning to `C/C=C\c1ccc2oc3cc(S(=O)(=O)N[C@H](C(=O)O)C(C)C)ccc3c2c1` [Compound 67, (S,Z)-3-methyl-2-(8-(prop-1-enyl)dibenzo[b,d]furan-3-sulfonamido)butanoic acid], the IC50 is less than 1.5 nM. The figure for `CC(C)[C@H](NS(=O)(=O)c1ccc2c(c1)sc1ccc(-c3ccoc3)cc12)C(=O)O` [Compound 25, (S)-2-(8-(furan-3-yl)dibenzo[b,d]thiophene-3-sulfonamido)-3-methylbutanoic acid] is 4.8 nM; for `CC(C)[C@H](NS(=O)(=O)c1ccc2c(c1)oc1ccc(-c3noc(-c4cccs4)n3)cc12)C(=O)O` [Compound 264, (S)-3-methyl-2-(8-(5-(thiophen-2-yl)-1,2,4-oxadiazol-3-yl)dibenzo[b,d]furan-3-sulfonamido)butanoic acid] it is less than 1.5 nM.

Broadly, the IC50 is the concentration that inhibits the measured activity by half. A higher IC50 goes with lower potency.

The values are drawn from patent US20100227859A1, “TRICYCLIC COMPOUNDS AS MATRIX METALLOPROTEINASE INHIBITORS” (priority 2007, published 2010).
